In EP4778922A1, “BICYCLIC COMPOUND, AND PREPARATION METHOD THEREFOR AND PHARMACEUTICAL USE THEREOF” (Shanghai Jeyou Pharmaceutical Co., Ltd., priority 2023, dated 2025):

Tests used:
22RV1 cells = assay: Cell proliferation inhibition assay in 22RV1 cells (CellTiter-Glo, 7 days); format: cell-based, human; conditions: Homo sapiens
Experimental: • 1. The human prostate cancer cell lines 22RV1 and LNCaP were purchased from ATCC. […] The cell concentration was adjusted to an appropriate concentration (determined based on the results of cell density optimization experiments), and the cells were seeded into a 96-well plate. A 100 µL cell suspension was added, resulting in 3000 cells per well. […] On the second day, for 22Rv1 cells, test compounds at different concentrations were added, and the cells were incubated at 37°C in a 5% CO2 incubator for 7 days; for LNCaP cells, test compounds at different concentrations were added first, and after 1 hour of treatment, 0.2 nM DHT was added. The cells were then incubated at 37°C in a 5% CO2 incubator for 7 days. • 4. After the incubation period, a volume of CellTiter-Glo detection reagent equal to the volume of the culture medium was added to each well. The plate was shaken and mixed thoroughly for 5 minutes, then incubated at room temperature for 10 minutes. Readings were taken using a PerkinElmer EnVision microplate reader. • 5.
The IC50 curve was fitted and the IC50 value was calculated using the software GraphPad Prism 8 with the calculation formula XY-analysis/Nonlinear regression (curve fit)/Dose response-Inhibition/log (inhibitor) vs. response-Variable slope (four parameters).

[1] = Mouse pharmacokinetic test; format: in vivo, ICR mice; conditions: plasma; for Tmax: read-out: Tmax
Experimental: Formulation preparation: The dosing solutions were prepared on the day of administration.
Six healthy male naive ICR mice weighing 25-30 g were selected and divided into two groups (intravenous and oral groups), with three mice in each group, and administered a single dose. […] Feeding was resumed 4 h after administration. Timing was initiated following intravenous and oral administration. […] The collected whole blood was briefly vortexed twice for mixing, placed on wet ice, and centrifuged at 4°C and 8000 rpm for 5 min within 1 h. The supernatant plasma was collected and stored at -80°C until processing and analysis. Table 3: Pharmacokinetics in mice

| SMILES | IC50 (22RV1 cells; 22Rv1, 168 h) | AUC(0-inf) ([1]; po, 30 mg/kg, PO-30mpk) | Cmax ([1]; po, 30 mg/kg, PO-30mpk) | half-life ([1]; po, 30 mg/kg, PO-30mpk) | Tmax ([1]; po, 30 mg/kg, PO-30mpk) | IC50 (22RV1 cells; 168 h) | further results |
| --- | --- | --- | --- | --- | --- | --- | --- |
| CC(C)(c1ccc(-c2ccc(OCc3ccnc(N4CC(S(C)(=N)=O)C4)n3)cn2)cc1)c1cc(Cl)c(OCCCl)c(C#N)c1 (racemic) [Compound 242] | 490 nM | 607 µg·h/mL | 78000 ng/mL | 4.4 h | 4 h |  |  |
| CC(C)(c1ccc(-c2ccc(OCc3ccnc(N=S4(=O)CCCC4)n3)cn2)cc1)c1cc(Cl)c(OCCCl)c(C#N)c1 [Compound 16] | 940 nM | 211 µg·h/mL | 36100 ng/mL | 1.46 h | 1.67 h |  |  |
| CC(C)(c1ccc(-c2ccc(OCc3ccnc(P(C)(C)=O)n3)nc2)cc1)c1cc(Cl)c(OCCCl)c(C#N)c1 [Compound 17] | 960 nM | 420 µg·h/mL | 35700 ng/mL | 5.82 h | 4.67 h |  | C0 ([1]; 0.5 mg/kg, IV-0.5mpk): 982 ng/mL; clearance ([1]; 0.5 mg/kg, IV-0.5mpk): 1.1 mL/min/kg; bioavailability ([1]; 30 mg/kg, PO-30mpk vs IV-0.5mpk): 92.2%; AUC(0-inf) ([1]; iv, 0.5 mg/kg, IV-0.5mpk): 7.59 µg·h/mL; half-life ([1]; iv, 0.5 mg/kg, IV-0.5mpk): 5.6 h |
| CC(C)(c1ccc(-c2ccc(Oc3ccnc(P(C)(C)=O)n3)cc2)cc1)c1cc(Cl)c(OCCCl)c(C#N)c1 [Compound 26] | 1420 nM | 368 µg·h/mL | 29500 ng/mL | 7.81 h | 3.33 h |  |  |
| CC(C)(c1ccc(-c2ccc(OCc3ccnc(N=S(C)(C)=O)n3)cc2)cc1)c1cc(Cl)c(OCCCl)c(C#N)c1 [Compound 44] | 940 nM | 219 µg·h/mL | 11700 ng/mL | 9.35 h | 4.67 h |  |  |
| CC(C)(c1ccc(-c2ccc(OCC3CN(c4ccnc(P(C)(C)=O)n4)C3)cc2)cc1)c1cc(Cl)c(OCCCl)c(C#N)c1 [Compound 70] | 500 nM | 187 µg·h/mL | 14700 ng/mL | 5.13 h | 4 h |  |  |
| CC(C)(c1ccc(-c2ccc(OCc3ccnc(N4CC5(COC5)C4)n3)cn2)cc1)c1cc(Cl)c(OCCCl)c(C#N)c1 [Compound 82] | 860 nM | 171 µg·h/mL | 24900 ng/mL | 8.3 h | 2.7 h |  |  |
| CC(C)(c1ccc(-c2ccc(OC3CCN(c4ccnc(P(C)(C)=O)n4)CC3)nc2)cc1)c1cc(Cl)c(OCCCl)c(C#N)c1 [Compound 103] | 690 nM | 247 µg·h/mL | 18100 ng/mL | 7.5 h | 4 h |  |  |
| CC(C)(c1ccc(-c2ccc(OCc3ccnc(P(C)(C)=O)n3)c(F)c2)cc1)c1cc(Cl)c(OCCCl)c(C#N)c1 [Compound 117] | 680 nM | 304 µg·h/mL | 15700 ng/mL | 12.1 h | 4 h |  |  |
| CC(C)(c1ccc(-c2ccc(OCc3ccnc(N4CC(P(C)(C)=O)C4)n3)cc2)cc1)c1cc(Cl)c(OCCCl)c(C#N)c1 [Compound 135] | 230 nM | 207 µg·h/mL | 13600 ng/mL | 5.6 h | 6 h |  |  |
| CC(C)(c1ccc(-c2ccc(OCc3ccnc(C4CN(S(C)(=O)=O)C4)n3)cc2)cc1)c1cc(Cl)c(OCCCl)c(C#N)c1 [Compound 145] | 600 nM | 273 µg·h/mL | 15800 ng/mL | 15.3 h | 4 h |  |  |
| CC(C)(c1ccc(-c2ccc(OCc3ccnc(N4CC(NS(C)(=O)=O)C4)n3)cc2)cc1)c1cc(Cl)c(OCCCl)c(C#N)c1 [Compound 161] | 450 nM | 376 µg·h/mL | 11800 ng/mL | 22.7 h | 4 h |  |  |
| CC(C)(c1ccc(-c2ccc(OCc3ccnc(N4CC(CS(C)(=O)=O)C4)n3)cc2)cc1)c1cc(Cl)c(OCCCl)c(C#N)c1 [Compound 175] | 490 nM | 320 µg·h/mL | 9200 ng/mL | 21.1 h | 4 h |  |  |
| CC(C)(c1ccc(-c2ccc(OCc3ccnc(N=S4(=O)CCN(C[C@H](O)C(F)(F)F)CC4)n3)cc2)cc1)c1cc(Cl)c(OCCCl)c(C#N)c1 [Compound 287] |  |  |  |  |  | 670 nM |  |
| CC(C)(c1ccc(-c2ccc(/C=C/c3cnc(N=S4(=O)CCOCC4)nc3)cc2)cc1)c1cc(Cl)c(OCCCl)c(C#N)c1 [Compound 293] |  |  |  |  |  | 74 nM |  |
| CC(C)(c1ccc(-c2ccc(/C=C/c3ccnc(N=S4(=O)CCOCC4)n3)cc2)cc1)c1cc(Cl)c(OCCCl)c(C#N)c1 [Compound 294] |  |  |  |  |  | 820 nM |  |
| CC(C)(c1ccc(-c2ccc(OCC3CC(CN4CCS(=O)(=O)CC4)C3)cc2)cc1)c1cc(Cl)c(OCCCl)c(C#N)c1 (stereo not drawn) [Compound 296] |  |  |  |  |  | 480 nM |  |
| CC(C)(c1ccc(-c2ccc(OCCN3CC4(C3)CS(=O)(=O)C4)cc2)cc1)c1cc(Cl)c(OCCCl)c(C#N)c1 [Compound 299] |  |  |  |  |  | 970 nM |  |

| SMILES | IC50 (22RV1 cells; 22Rv1, 168 h) | AUC(0-inf) ([1]; po, 30 mg/kg, PO-30mpk) | Cmax ([1]; po, 30 mg/kg, PO-30mpk) | half-life ([1]; po, 30 mg/kg, PO-30mpk) | Tmax ([1]; po, 30 mg/kg, PO-30mpk) | IC50 (22RV1 cells; 168 h) | further results |
| --- | --- | --- | --- | --- | --- | --- | --- |
| CC(C)(c1ccc(-c2ccc(OCC3CC(CN4CC5(CCS(=O)(=O)CC5)C4)C3)cc2)cc1)c1cc(Cl)c(OCCCl)c(C#N)c1 (stereo not drawn) [Compound 303] |  |  |  |  |  | 490 nM |  |
| Cc1cc(OCc2ccc(-c3cnc(P(C)(C)=O)nc3)cc2)ccc1-c1ccc(C(C)(C)c2cc(Cl)c(OCCCl)c(C#N)c2)cc1 [Compound 304] |  |  |  |  |  | 810 nM |  |
| CC(C)(c1ccc(-c2ccc(OCC3CC(CN4CC5(C4)CS(=N)(=O)C5)C3)cc2)cc1)c1cc(Cl)c(OCCCl)c(C#N)c1 (stereo not drawn) [Compound 307] |  |  |  |  |  | 660 nM |  |
| CC(C)(c1ccc(-c2ccc(OCC3CCC(CN4CC5(C4)CS(=O)(=O)C5)CC3)cc2)cc1)c1cc(Cl)c(OCCCl)c(C#N)c1 (stereo not drawn) [Compound 309] |  |  |  |  |  | 460 nM |  |
| CC(C)(c1ccc(-c2ccc(OCC3CN(C(=O)C4CC5(C4)CS(=O)(=O)C5)C3)cc2)cc1)c1cc(Cl)c(OCCCl)c(C#N)c1 [Compound 310] |  |  |  |  |  | 940 nM |  |
| CC(C)(c1ccc(-c2ccc(OCC3CC(CN4CC5(CCS(=N)(=O)CC5)C4)C3)cc2)cc1)c1cc(Cl)c(OCCCl)c(C#N)c1 (stereo not drawn) [Compound 311] |  |  |  |  |  | 540 nM |  |
| C[C@@H](Cl)COc1c(Cl)cc(C(C)(C)c2ccc(-c3ccc(OCc4ccnc(P(C)(C)=O)n4)cc3)cc2)cc1C#N [Compound 313] |  |  |  |  |  | 890 nM |  |
| CNC1CN(c2nccc(COc3ccc(-c4ccc(C(C)(C)c5cc(Cl)c(OCCCl)c(C#N)c5)cc4)cc3)n2)C1 [Compound 314] |  |  |  |  |  | 1140 nM |  |
| C[C@H](O)CN1CCS(=O)(=Nc2nccc(COc3ccc(-c4ccc(C(C)(C)c5cc(Cl)c(OCCCl)c(C#N)c5)cc4)cc3)n2)CC1 [Compound 316] |  |  |  |  |  | 680 nM |  |
| CC(C)(c1ccc(-c2ccc(OCC3CCC(CN4CC5(C4)CS(=N)(=O)C5)CC3)cc2)cc1)c1cc(Cl)c(OCCCl)c(C#N)c1 (stereo not drawn) [Compound 318] |  |  |  |  |  | 730 nM |  |
| CC(C)(c1ccc(-c2ccc(OCC34CC(c5cnc(N6CC(S(C)(=O)=O)C6)nc5)(C3)C4)cc2)cc1)c1cc(Cl)c(OCCCl)c(C#N)c1 [Compound 321] |  |  |  |  |  | 1200 nM |  |
| CC(C)(c1ccc(-c2ccc(OCCN3CCS(=N)(=O)CC3)cc2)cc1)c1cc(Cl)c(OCCCl)c(C#N)c1 [Compound 324] |  |  |  |  |  | 300 nM |  |
| CC(C)(c1ccc(-c2ccc(Oc3ccnc(P(C)(C)=O)n3)nc2)cc1)c1cc(Cl)c(OCCCl)c(C#N)c1 [Compound 326] |  |  |  |  |  | 980 nM |  |
| CC(C)(c1ccc(-c2ccc(OCC3CC4(C3)CS(=N)(=O)C4)cn2)cc1)c1cc(Cl)c(OCCCl)c(C#N)c1 (stereo not drawn) [Compound 328] |  |  |  |  |  | 1110 nM |  |
| CC(C)(c1ccc(-c2ccc(OCc3ccnc(N4CC5(CCS5(=N)=O)C4)n3)cc2)cc1)c1cc(Cl)c(OCCCl)c(C#N)c1 (stereo not drawn) [Compound 329] |  |  |  |  |  | 390 nM |  |
| CC(C)(c1ccc(-c2ccc(OCCOc3nccc(P(C)(C)=O)n3)cc2)cc1)c1cc(Cl)c(OCCCl)c(C#N)c1 [Compound 330] |  |  |  |  |  | 280 nM |  |
| CC(C)(c1ccc(-c2ccc(OCc3ccnc(N4CC(S(=N)(=O)C5CC5)C4)n3)cn2)cc1)c1cc(Cl)c(OCCCl)c(C#N)c1 (stereo not drawn) [Compound 336] |  |  |  |  |  | 680 nM |  |
| CC(C)(c1ccc(-c2ccc(OCC3CC4(C3)CN(c3ccnc(P(C)(C)=O)n3)C4)cc2)cc1)c1cc(Cl)c(OCCCl)c(C#N)c1 [Compound 393] |  |  |  |  |  | 880 nM |  |
